Measured values from patent publication US9738640B2, “Substituted benzamide derivatives as in vitro MAO-B inhibitors” (“NTZ LAB” Ltd., priority 2013, dated 2017).

Experiments:
Assay type in all cases: biochemical
[1] = target: rat MAO-A (Rattus norvegicus (Rat), UniProt P21396); assay: Rat MAO-A assay (Amplex Red fluorescence, rat liver mitochondria); conditions: deprenyl-pretreated, substrate p-tyramine 300 μM
Experimental: (§1) The MAO-A and MAO-B enzyme activity of the compounds, according to the present invention, was estimated following an assay adapted from the method described by Holt et al. (Anal. Biochem. 244, 384-392, 1997). The MAO experiments were performed using a fluorescence-based detection of resorufin, obtained by a reaction of released from the biological sample hydrogen peroxide with 10-acetyl-3,7-dihydroxyphenoxazine (ADHP) in the presence of a peroxidase (horseradish peroxidase-coupled reaction, HRP). The inhibitory in vitro MAO activity of the compounds of general Formula I was investigated at rat and human MAO-A and MAO-B. To perform rat MAO-A and MAO-B experiments, a preliminary membrane preparation of mitochondrial-enriched rat livers isolated from male Sprague-Dawley rats (Harlan Sprague Dawley, Dublin, US) was required. As sources for recombinant human MAO-A and MAO-B enzymes were used microsomal products, prepared from baculovirus-infected insect cells expressing human MAO-A (Sigma-Aldrich, M7316) and human MAO-B (Sigma-Aldrich, M7441), respectively.
(§2) To estimate MAO inhibitory activity of the compounds of Formula I at rat and human MAO-A and MAO-B, the corresponding test compound was dissolved in 100% DMSO and subsequently added to the appropriate enzyme solution containing rat liver mitochondria (rat MAO-A and -B) or recombinant human protein (for determination of human MAO-A and -B) in sodium phosphate buffer. The test sample was incubated for 30 min at room temperature prior to the addition of Amplex Red reagent (Invitrogen A12214) using for the fluorescence-based measuring of MAO inhibitory activity. The enzymatic reaction was started by the addition of the substrate p-tyramine. The fluorescence measurements were performed over a period of 45 min using a microplate fluorescence reader (excitation at 544 nm and emission at 590 nm). IC50 values were determined from the inhibition curves obtained using different inhibitor concentrations in triplicate within the same experiment. A four-parameter logistic equation was used to fit the dose-response curves for test compounds using a computer program.
(§3) MAO-A and MAO-B enzymatic activity of the compounds was measured in 96-well-plates using a continuous fluorescence-based assay. This assay was adapted from the method described by Holt et al. (Anal. Biochem., 244, 384-392, 1997). The MAO experiments were performed using the commercial assay kit Amplex Red (Invitrogen A12214). The kit was stored frozen at ≦−20° C. and protected from light before use. The Amplex Red MAO assay kit was used for the detection of H2O2 released from the biological sample. Subsequently, a reaction of 10-acetyl-3,7-dihydroxyphenoxazine (ADHP, Amplex Red reagent) with H2O2 in the presence of a peroxidase (horse-radish peroxidase-coupled reaction, HRP) led to the production of resorufin. The quantification of hydrogen peroxide released from the biological sample and the subsequent production of resorufin was monitored using a fluorescence microplate reader (Holt et al., Anal. Biochem., 244, 384-392, 1997). To ensure an optimal efficiency of the Amplex Red reagent, the MAO assay's were performed at pH 7.4.
MAO enzyme-containing mitochondrial-enriched fractions of rat were obtained from male Sprague-Dawley rat livers (250-300 g, Harlan Sprague-Dawley, Dublin, Va., US). The livers (10.0 g) were dissected, given into 15.0 mL of an ice-cold 5.0 mM Hepes buffer (pH 7.4), containing 210 mM mannitol, 70 mM sucrose, 0.5 mM ethylene glycoltetraacetic acid (EGTA), and 2.0 mg/mL of bovine serum albumin (BSA), and homogenized using a glass/Teflon potter (10 ups and downs at 1100 rpm). After homogenization, the volume is adjusted to 100 mL with the same buffer. After a low speed centrifugation (10 min at 600 g; 4° C.), the supernatant was further centrifuged at 15,000 rpm for 5 min at +4° C. […]

[2] = target: human MAO-A (Homo sapiens (Human), UniProt P21397); assay: Human MAO-A assay (Amplex Red fluorescence, recombinant enzyme); conditions: substrate p-tyramine 150 μM
Experimental: as §1, §2, §3
Recombinant human MAO-A enzyme, expressed in baculovirus-infected insect cells, was purchased from Sigma-Aldrich (M7316). The assay was carried out in 96-well plates in a final volume of 200 μL at room temperature. According to the experiment protocol, a solution of test compound (2.0 μL) in DMSO (100%) was added to 90.0 μL of protein solution (0.3 μg prot/well, containing 6.6 μL protein and […] phosphate buffer) and incubated for 30 min prior to the addition of 90 μL of freshly prepared Amplex Red reagent. The Amplex Red reagent was prepared as described for rat MAO-A. The enzymatic reaction was started by the addition of 20.0 μL/well of an aqueous solution of the substrate p-tyramine (150 μM final concentration). […]

[3] = target: rat MAO-B (Rattus norvegicus (Rat), UniProt P19643); assay: Rat MAO-B assay (Amplex Red fluorescence, rat liver mitochondria); conditions: clorgyline-pretreated, substrate p-tyramine
Experimental: (§4) To estimate MAO inhibitory activity of the compounds of Formula I at rat and human MAO-A and MAO-B, the corresponding test compound was dissolved in 100% DMSO and subsequently added to the appropriate enzyme solution containing rat liver mitochondria (rat MAO-A and -B) or recombinant human protein (for determination of human MAO-A and -B) in sodium phosphate buffer. The test sample was incubated for 30 min at room temperature prior to the addition of Amplex Red reagent (Invitrogen A12214) using for the fluorescence-based measuring of MAO inhibitory activity. The enzymatic reaction was started by the addition of the substrate p-tyramine. […] IC50 values were determined from the inhibition curves obtained using different inhibitor concentrations in triplicate within the same experiment. A four-parameter logistic equation was used to fit the dose-response curves for test compounds using a computer program.
MAO enzyme-containing mitochondrial-enriched fractions of rat were obtained from male Sprague-Dawley rat livers (250-300 g, Harlan Sprague-Dawley, Dublin, Va., US). The livers (10.0 g) were dissected, given into 15.0 mL of an ice-cold 5.0 mM Hepes buffer (pH 7.4), containing 210 mM mannitol, 70 mM sucrose, 0.5 mM ethylene glycoltetraacetic acid (EGTA), and 2.0 mg/mL of bovine serum albumin (BSA), and homogenized using a glass/Teflon potter (10 ups and downs at 1100 rpm). After homogenization, the volume is adjusted to 100 mL with the same buffer. After a low speed centrifugation (10 min at 600 g; 4° C.), the supernatant was further centrifuged at 15,000 rpm for 5 min at +4° C. The resulting pellet was resuspended in 2.0 mL of a 50 mM sodium phosphate buffer (pH 7.4) and stored at −80° C. in aliquots of 1.0 mL until further use.
Assays were performed in 96-well plates in a final volume of 200 μL at room temperature. […] Test compounds (2.0 μL), dissolved in DMSO (100%), were added to 90.0 μL of mitochondrial preparation (25.0 μg prot) and incubated for 30 min prior to the addition of 90 μL of freshly prepared Amplex Red reagent, prepared as recommended in the kit from Invitrogen (A12214). For a 96-well plate, 1.0 mg of Amplex Red, dissolved in 200 μL of DMSO (100%) and 100 μL of reconstituted horse-radish peroxidase (HRP 200 U/mL, Sigma Aldrich P6782) stock solution (kit vial+1.0 mL of sodium phosphate buffer) were added to 9700 μL of sodium phosphate buffer (250 mM at pH 7.4).

[4] = target: human MAO-B (Homo sapiens (Human), UniProt P27338); assay: Human MAO-B assay (Amplex Red fluorescence, recombinant enzyme); conditions: substrate p-tyramine
Chain of human MAO-B (P27338 whole entry): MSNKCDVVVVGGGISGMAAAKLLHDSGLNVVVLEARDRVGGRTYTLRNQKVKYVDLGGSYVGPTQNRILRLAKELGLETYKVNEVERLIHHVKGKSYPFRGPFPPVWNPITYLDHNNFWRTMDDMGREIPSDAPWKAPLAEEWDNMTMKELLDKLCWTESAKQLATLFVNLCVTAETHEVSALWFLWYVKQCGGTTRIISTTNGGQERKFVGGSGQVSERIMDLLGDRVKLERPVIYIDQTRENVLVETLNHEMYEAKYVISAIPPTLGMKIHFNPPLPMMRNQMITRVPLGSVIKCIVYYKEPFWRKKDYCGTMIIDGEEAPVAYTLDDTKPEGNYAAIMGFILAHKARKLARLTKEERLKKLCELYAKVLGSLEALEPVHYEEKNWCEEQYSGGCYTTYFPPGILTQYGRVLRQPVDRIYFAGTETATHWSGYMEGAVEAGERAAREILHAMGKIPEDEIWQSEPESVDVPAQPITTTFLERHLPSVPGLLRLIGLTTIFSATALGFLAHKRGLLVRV
Experimental: as §4
MAO-A and MAO-B enzymatic activity of the compounds was measured in 96-well-plates using a continuous fluorescence-based assay. […] The MAO experiments were performed using the commercial assay kit Amplex Red (Invitrogen A12214). The kit was stored frozen at ≦−20° C. and protected from light before use. The Amplex Red MAO assay kit was used for the detection of H2O2 released from the biological sample. Subsequently, a reaction of 10-acetyl-3,7-dihydroxyphenoxazine (ADHP, Amplex Red reagent) with H2O2 in the presence of a peroxidase (horse-radish peroxidase-coupled reaction, HRP) led to the production of resorufin. […] To ensure an optimal efficiency of the Amplex Red reagent, the MAO assay's were performed at pH 7.4.
The assay was carried out in 96-well plates in a final volume of 200 μL at room temperature. According to the experiment protocol, a solution of test compound (2.0 μL) in DMSO (100%) was added to 90.0 μL of protein solution (0.3 μg prot/well, containing 6.6 μL protein and 9.993 μL phosphate buffer) and incubated for 30 min prior to the addition of 90 μL of freshly prepared Amplex Red reagent. […] The p-tyramine solution was prepared from p-tyramine hydrochloride (45 μL) in water (100 mM) and phosphate buffer (2955 μL). […] DMSO (2.0 μL) was used as a negative control.
Recombinant human MAO-B enzyme, expressed in baculovirus-infected insect cells, was purchased from Sigma-Aldrich (M7441).

Chain of rat MAO-B (P19643 whole entry): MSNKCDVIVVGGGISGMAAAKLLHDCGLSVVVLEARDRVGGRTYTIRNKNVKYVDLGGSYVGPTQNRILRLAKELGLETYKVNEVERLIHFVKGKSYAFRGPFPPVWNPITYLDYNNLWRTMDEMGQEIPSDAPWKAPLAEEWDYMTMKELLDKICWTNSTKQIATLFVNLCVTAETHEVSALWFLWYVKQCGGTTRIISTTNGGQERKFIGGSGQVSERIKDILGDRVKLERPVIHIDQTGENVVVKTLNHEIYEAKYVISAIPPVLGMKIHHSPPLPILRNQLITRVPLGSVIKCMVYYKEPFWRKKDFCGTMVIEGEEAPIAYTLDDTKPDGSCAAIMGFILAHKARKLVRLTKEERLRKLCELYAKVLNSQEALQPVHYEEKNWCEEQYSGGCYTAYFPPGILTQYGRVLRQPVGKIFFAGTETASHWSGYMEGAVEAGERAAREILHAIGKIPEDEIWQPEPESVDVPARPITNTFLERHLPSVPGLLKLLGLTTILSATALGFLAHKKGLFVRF
Chain of rat MAO-A (P21396 whole entry): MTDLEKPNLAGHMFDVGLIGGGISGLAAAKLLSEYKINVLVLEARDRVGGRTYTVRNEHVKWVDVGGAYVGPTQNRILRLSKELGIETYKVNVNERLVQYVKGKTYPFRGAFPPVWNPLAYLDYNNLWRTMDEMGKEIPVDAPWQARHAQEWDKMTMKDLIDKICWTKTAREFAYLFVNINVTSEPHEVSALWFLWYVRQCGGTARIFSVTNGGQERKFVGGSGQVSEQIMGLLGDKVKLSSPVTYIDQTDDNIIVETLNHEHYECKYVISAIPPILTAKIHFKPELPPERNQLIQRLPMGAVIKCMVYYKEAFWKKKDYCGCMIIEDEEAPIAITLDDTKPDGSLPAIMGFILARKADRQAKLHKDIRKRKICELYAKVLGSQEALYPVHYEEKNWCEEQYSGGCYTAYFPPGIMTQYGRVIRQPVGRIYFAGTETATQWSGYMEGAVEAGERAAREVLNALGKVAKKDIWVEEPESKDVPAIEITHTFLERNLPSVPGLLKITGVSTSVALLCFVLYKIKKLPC
Chain of human MAO-A (P21397 whole entry): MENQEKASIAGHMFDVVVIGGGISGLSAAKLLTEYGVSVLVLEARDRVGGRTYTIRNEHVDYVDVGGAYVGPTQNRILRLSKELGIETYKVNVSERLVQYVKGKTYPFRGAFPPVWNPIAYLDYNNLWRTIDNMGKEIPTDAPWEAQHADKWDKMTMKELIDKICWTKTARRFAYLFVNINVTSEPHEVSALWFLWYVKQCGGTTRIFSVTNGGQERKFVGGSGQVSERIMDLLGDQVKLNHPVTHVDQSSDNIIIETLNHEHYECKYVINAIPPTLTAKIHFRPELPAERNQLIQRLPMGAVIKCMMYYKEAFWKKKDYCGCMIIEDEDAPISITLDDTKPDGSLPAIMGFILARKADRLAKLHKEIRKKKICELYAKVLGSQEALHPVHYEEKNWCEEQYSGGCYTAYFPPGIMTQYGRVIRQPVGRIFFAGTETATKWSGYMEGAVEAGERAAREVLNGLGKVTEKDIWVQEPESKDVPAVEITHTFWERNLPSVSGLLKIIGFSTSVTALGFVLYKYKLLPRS

O=C(Nc1ccc2[nH]ccc2n1)c1ccc(Cl)c(Cl)c1 [Example 1, 3,4-dichloro-N-(1H-pyrrolo[3,2-b]pyridin-5-yl)benzamide]
IC50 [1]: > 10000 nM | IC50 [2]: > 10000 nM

O=C(Nc1ccc2[nH]ccc2n1)c1ccc(F)c(Cl)c1 [Example 2, 3-chloro-4-fluoro-N-(1H-pyrrolo[3,2-b]pyridin-5-yl)benzamide]
IC50 [1]: > 10000 nM | IC50 [3]: 4.9 ± 0.33 nM | IC50 [2]: > 10000 nM | IC50 [4]: 3.27 ± 0.04 nM

O=C(Nc1ccc2[nH]ccc2n1)c1ccc(Cl)c(F)c1 [Example 3, 4-chloro-3-fluoro-N-(1H-pyrrolo[3,2-b]pyridin-5-yl)benzamide]
IC50 [1]: > 10000 nM | IC50 [3]: 85.5 ± 5.8 nM | IC50 [2]: > 10000 nM | IC50 [4]: 10.9 ± 0.75 nM

O=C(Nc1ccc2[nH]ccc2n1)c1ccc(F)c(F)c1 [Example 4, 3,4-difluoro-N-(1H-pyrrolo[3,2-b]pyridin-5-yl)benzamide]
IC50 [1]: > 10000 nM | IC50 [3]: 153 ± 11 nM | IC50 [2]: > 10000 nM | IC50 [4]: 46.1 ± 1.5 nM

O=C(Nc1ccc2c(ccn2C(=O)c2ccc(Cl)c(F)c2)n1)c1ccc(Cl)c(F)c1 [Example 5, 4-chloro-N-(1-(4-chloro-3-fluorobenzoyl)-1H-pyrrolo[3,2-b]pyridin-5-yl)-3-fluorobenzamide]
IC50 [1]: > 10000 nM | IC50 [3]: 246 ± 53 nM | IC50 [2]: > 10000 nM | IC50 [4]: 27.5 ± 2 nM

O=C(Nc1cc2cc[nH]c2cn1)c1ccc(Cl)c(Cl)c1 [Example 6, 3,4-dichloro-N-(1H-pyrrolo[2,3-c]pyridin-5-yl)benzamide]
IC50 [1]: ≥ 10000 nM | IC50 [3]: 224 ± 17 nM | IC50 [2]: < 10000 nM | IC50 [4]: 28.5 ± 2.4 nM

O=C(Nc1cc2cc[nH]c2cn1)c1ccc(F)c(Cl)c1 [Example 7, 3-chloro-4-fluoro-N-(1H-pyrrolo[2,3-c]pyridin-5-yl)benzamide]
IC50 [1]: < 10000 nM | IC50 [3]: 158 ± 16 nM | IC50 [2]: < 10000 nM | IC50 [4]: 72 ± 2.6 nM

O=C(Nc1cc2cc[nH]c2cn1)c1ccc(F)c(F)c1 [Example 8, 3,4-difluoro-N-(1H-pyrrolo[2,3-c]pyridin-5-yl)benzamide]
IC50 [1]: > 10000 nM | IC50 [2]: > 10000 nM | IC50 [4]: 277 ± 12 nM
